Measurements reported in US20120071475A1, “UREA DERIVATIVES HAVING PI3K-INHIBITING ACTIVITY” (SHIONOGI & CO., LTD., priority 2009, published 2012).

Key:
[1] = molecular target: T1, CYP3A4 (Homo sapiens, UniProt P08684); test: CYP3A4 fluorescence MBI test; assay type: in vitro ADME; conditions: difference in IC50 with 0 or 30 minutes pre-reaction; CYP3A4 expressed in E. coli, substrate 7-BFC
T1 construct: host or cells: E. coli
Protocol: The CYP3A4 fluorescence MBI test is a test to examine the enhancement of CYP3A4 inhibition of a compound by a metabolic reaction. The test was performed using as an index, a reaction to produce a metabolite 7-hydroxytrifluoromethylcoumarin (HFC) which emits fluorescence, in which CYP3A4 expressed in E. coli was used as an enzyme and 7-benzyloxytrifluoromethylcoumarin (7-BFC) is debenzylated by CYP3A4 enzyme.
The reaction conditions are as follows: substrate: 5.6 μmol/L 7-BFC; pre-reaction time; 0 or 30 minutes; reaction time: 15 minutes; reaction temperature: 25° C. (room temperature); content of CYP3A4 (an enzyme expressed in E. coli): […] at the time of a pre-reaction and […] (when diluted 10 times) at the time of a reaction; the concentrations of a test drug: 0.625, 1.25, 2.5, 5, 10, and 20 μmol/L (6 points).
In a 96-well plate, an enzyme solution and a test drug solution were added as a pre-reaction solution into K-Pi buffer solution (pH 7.4) in the aforementioned ratio. A portion thereof was transferred to another 96-well plate to be diluted ten times with a substrate and a K-Pi buffer solution. A coenzyme, NADPH, was then added to start a reaction, which is the index (this is without a pre-reaction). After reacting for a predetermined time, 4:1 of acetonitrile: 0.5 mol/L Tris (trishydroxyaminomethane) was added to quench the reaction. To the remaining pre-reaction solution, NADPH was added to start a pre-reaction (this is with a pre-reaction). After pre-reacting for a predetermined time, a portion thereof was transferred to another plate to be diluted ten times with a substrate and K-Pi buffer solution, and thereby the index reaction is started. After reacting for a predetermined time, 4:1 of acetonitrile:0.5 mol/L Tris (trishydroxyaminomethane) was added to quench the reaction. For each plate in which the index reaction was carried out, the fluorescence value of a metabolite 7-HFC was measured with a fluorescent plate reader (Ex=420 nm, Em=535 nm).
The case wherein only DMSO (a solvent which dissolved a drug) was added to a reaction system was defined as a control (100%). When a test drug solution was added, the remaining activity (%) at each concentration was calculated, and then IC50 was calculated with a concentration and an inhibition ratio by an inverse estimation using a logistic model. When the difference in IC50 value is 5 μmol/L or more, the compound is shown as (+). When 3 μmol/L or less, the compound is shown as (−).

[2] = molecular target: PI3Kγ (Homo sapiens, UniProt P48736); test: PI3Kγ inhibitory activity (PI3-kinase HTRF assay, inhibition ratio); assay type: biochemical; conditions: 0.5 h, compound at 10 μmol/L; read-out: PI3Kg Inhibition Ratio % (10 μM)
Protocol: For each compound synthesized in the above Examples, PI3Kγ inhibitory activity was measured.
The PI3Kγ inhibitory activity of a compound was evaluated using PI3-kinase HTRF™ assay (Millipore) according to the following procedure:
To each well of a testing plate, 5 μL of a compound solution containing 10% DMSO (40 μmol/L as the concentration of the compound), 5 μL of a substrate solution (40 μmol/L phosphatidylinositol (4,5)-bisphosphate, 20 mmol/L MgCl2, 10 mmol/L DTT), and 5 μL of an enzyme solution (80 μg/mL PI-3 kinase y, 10 mmol/L MgCl2, 5 mmol/L DTT) were added, and then allowed to stand for 10 minutes.
Then, 5 μL of a reaction solution (40 μmol/L ATP, 10 mmol/L MgCl2, 5 mmol/L DTT) was added thereto. After reacting for 30 minutes at room temperature, 5 μL of a solution containing EDTA and biotinylated phosphatidylinositol (3,4,5)-triphosphate was added to quench the reaction.
5 μL of a detection reagent containing a europium-labeled anti-GST antibody, the GST-tagged PH domain, and allophycocyanin-labeled streptavidin was added thereto. After 18 hours, HTRF (excitation wavelength: 330 nm, measured wavelengths: 620 nm and 665 nm) was measured.
HTRF ratio was defined as the value obtained by dividing the amount of fluorescence obtained at the measured wavelength 665 nm by the amount of fluorescence obtained at 620 nm. The HTRF ratio in the absence of a compound was defined as 100% activity and the HTRF ratio in the absence of PI-3 kinase y was defined as 0% activity to calculate an inhibition ratio, which was defined as the PI3Kγ inhibitory activity of a compound at 10 μmol/L.

[3] = Metabolic stability test (pooled human liver microsome); assay type: in vitro ADME; conditions: percentage of test compound remained after 30 minutes, pooled human liver microsome 0.5 mg protein/mL, 1 mmol/L NADPH, 37° C., compound 0.5 μM
Protocol: After a subject compound was reacted for a certain time using a pooled human liver microsome commercially available, a reacted sample and an unreacted sample are compared to calculate a survival ratio, and then the degree of metabolism in the liver was evaluated.
0.2 mL of a buffer solution (50 mmol/L of Tris-HCl in pH 7.4, 150 mmol/L of potassium chloride, and 10 mmol/L of magnesium chloride) containing a human liver microsome of 0.5 mg protein/mL was reacted in the presence of 1 mmol/L NADPH at 37° C. for 0 or 30 minutes (oxidative reaction). After reacting, 50 μL of the reaction solution was added to 100 μL of a solution of methanol/acetonitrile (1/1 (v/v)), mixed, and then centrifuged at 3000 rpm for 15 minutes. The test compound in the supernatant was quantitated with LC/MS/MS. The amount of the compound at a reaction time of 0 minute was defined as 100% and, based on that, the percentage of the test compound remained after reacting for 30 minutes was calculated.

T1 sequence (P08684 whole entry): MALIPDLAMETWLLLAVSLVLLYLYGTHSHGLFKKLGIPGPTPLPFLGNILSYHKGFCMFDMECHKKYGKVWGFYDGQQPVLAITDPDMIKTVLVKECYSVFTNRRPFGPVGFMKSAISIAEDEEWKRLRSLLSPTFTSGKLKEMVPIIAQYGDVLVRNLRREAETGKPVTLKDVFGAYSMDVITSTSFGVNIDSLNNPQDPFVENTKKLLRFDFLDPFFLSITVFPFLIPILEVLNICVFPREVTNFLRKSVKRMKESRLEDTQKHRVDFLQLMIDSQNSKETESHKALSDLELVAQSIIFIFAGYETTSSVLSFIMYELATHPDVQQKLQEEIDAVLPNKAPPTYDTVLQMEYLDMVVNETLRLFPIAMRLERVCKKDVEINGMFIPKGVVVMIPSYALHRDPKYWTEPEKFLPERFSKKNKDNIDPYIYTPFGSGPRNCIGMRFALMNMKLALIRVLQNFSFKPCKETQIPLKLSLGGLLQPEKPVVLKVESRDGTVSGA
Chain of PI3Kγ (P48736 whole entry, species assumed): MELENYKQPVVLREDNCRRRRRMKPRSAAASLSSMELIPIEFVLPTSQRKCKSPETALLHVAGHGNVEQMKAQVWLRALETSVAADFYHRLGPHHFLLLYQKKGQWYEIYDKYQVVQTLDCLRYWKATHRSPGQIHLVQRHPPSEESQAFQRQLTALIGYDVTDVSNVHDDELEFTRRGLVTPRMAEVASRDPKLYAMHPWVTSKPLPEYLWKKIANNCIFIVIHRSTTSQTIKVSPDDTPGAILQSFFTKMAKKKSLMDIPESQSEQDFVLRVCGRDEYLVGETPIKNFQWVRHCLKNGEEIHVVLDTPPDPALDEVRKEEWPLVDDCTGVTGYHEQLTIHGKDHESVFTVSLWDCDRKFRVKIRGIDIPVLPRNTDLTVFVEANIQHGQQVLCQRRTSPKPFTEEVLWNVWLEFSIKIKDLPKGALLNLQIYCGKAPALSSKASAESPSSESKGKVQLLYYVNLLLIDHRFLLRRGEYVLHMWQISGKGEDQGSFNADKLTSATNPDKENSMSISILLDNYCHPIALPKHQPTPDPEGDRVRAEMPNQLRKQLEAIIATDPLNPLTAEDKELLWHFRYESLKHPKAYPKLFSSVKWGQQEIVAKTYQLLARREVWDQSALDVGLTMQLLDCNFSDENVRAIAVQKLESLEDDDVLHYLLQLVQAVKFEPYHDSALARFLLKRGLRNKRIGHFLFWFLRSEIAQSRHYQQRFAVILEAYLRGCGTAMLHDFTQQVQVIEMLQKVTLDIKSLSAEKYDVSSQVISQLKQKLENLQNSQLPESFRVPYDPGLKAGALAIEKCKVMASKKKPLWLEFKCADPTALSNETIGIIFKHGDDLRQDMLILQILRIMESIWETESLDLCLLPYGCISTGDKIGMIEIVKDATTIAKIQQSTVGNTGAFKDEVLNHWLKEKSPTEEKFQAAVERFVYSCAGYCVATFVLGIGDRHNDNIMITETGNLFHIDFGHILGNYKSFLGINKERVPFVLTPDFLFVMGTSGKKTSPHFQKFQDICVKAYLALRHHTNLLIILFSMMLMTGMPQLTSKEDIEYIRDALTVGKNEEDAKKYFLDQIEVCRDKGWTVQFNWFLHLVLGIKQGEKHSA

In the case of `COc1cc(N2CCc3nc(NC(=O)Nc4ccccc4C(=O)NC4(C#N)CC4)sc3C2)nc(OC)n1` [Compound I-20], the MBI [1] is reported as “(−) (When 3 μmol/L or less, the compound is shown as (−))” and the inhibition at 10 µM [2] is reported as no less than 95%.

With `COc1cc(N2CCc3nc(NC(=O)Nc4cccnc4C(=O)NC(C)(C)C)sc3C2)nc(OC)n1` [Compound I-22] the MBI [1] was “(−) (When 3 μmol/L or less, the compound is shown as (−))” and the inhibition at 10 µM [2] was no less than 95%.

With `COc1cc(N2CCc3nc(NC(=O)Nc4cnccc4C(=O)NC(C)(C)C)sc3C2)nc(OC)n1` [Compound I-23] the MBI [1] was “(−) (When 3 μmol/L or less, the compound is shown as (−))” and the inhibition at 10 µM [2] was no less than 95%.

In the case of `COc1cc(N2CCc3nc(NC(=O)Nc4cccnc4C(=O)N(C)C(C)C)sc3C2)nc(OC)n1` [Compound I-24], the MBI [1] is reported as “(−) (When 3 μmol/L or less, the compound is shown as (−))” and the inhibition at 10 µM [2] is reported as no less than 95%.

In the case of `COc1cc(N2CCc3nc(NC(=O)Nc4ccccc4C(F)(F)F)sc3C2)nc(OC)n1` [Compound I-33], the MBI [1] is reported as “(−) (When 3 μmol/L or less, the compound is shown as (−))”.

For `COc1cc(N2CCc3nc(NC(=O)Nc4ccccc4OC(F)(F)F)sc3C2)nc(OC)n1` [Compound I-34], the MBI [1] was “(−) (When 3 μmol/L or less, the compound is shown as (−))”.

For `COc1cc(N2CCc3nc(NC(=O)Nc4ccccc4C(N)=O)sc3C2)nc(OC)n1` [Compound I-35], the “hLMS_ox(at 0.5 μM) %” value [3] was 101%, the MBI [1] was “(−) (When 3 μmol/L or less, the compound is shown as (−))” and the inhibition at 10 µM [2] was no less than 95%.

In the case of `COc1cc(N2CCc3nc(NC(=O)Nc4ccccc4OCc4ccccc4)sc3C2)nc(OC)n1` [Compound I-39], the MBI [1] is reported as “(−) (When 3 μmol/L or less, the compound is shown as (−))”.

In the case of `COc1cc(N2CCc3nc(NC(=O)Nc4ccccc4C(C)(C)C)sc3C2)nc(OC)n1` [Compound I-40], the MBI [1] is reported as “(−) (When 3 μmol/L or less, the compound is shown as (−))”.

With `COc1cncc(N2CCc3nc(NC(=O)Nc4ccccc4C(=O)NC(C)C)sc3C2)c1` [Compound I-49] the MBI [1] was “(−) (When 3 μmol/L or less, the compound is shown as (−))”.

For `CNC(=O)c1ccccc1NC(=O)Nc1nc2c(s1)CN(c1cc(OC)nc(OC)n1)CC2` [Compound I-56], the “hLMS_ox(at 0.5 μM) %” value [3] was 95.5% and the MBI [1] was “(−) (When 3 μmol/L or less, the compound is shown as (−))”.

For `COc1cc(N2CCc3nc(NC(=O)Nc4ccccc4C(=O)NCC(C)C)sc3C2)nc(OC)n1` [Compound I-58], the MBI [1] was “(−) (When 3 μmol/L or less, the compound is shown as (−))”.

For `COc1cc(N2CCc3nc(NC(=O)Nc4ccccc4C(=O)NCCC(C)C)sc3C2)nc(OC)n1` [Compound I-59], the MBI [1] was “(−) (When 3 μmol/L or less, the compound is shown as (−))”.

In the case of `COc1cc(OC)nc(N2CCc3nc(NC(=O)Nc4ccccc4C(=O)NC(C)C)sc3C2)c1` [Compound I-62], the MBI [1] is reported as “(−) (When 3 μmol/L or less, the compound is shown as (−))”.

For `COc1cc(N2CCc3nc(NC(=O)Nc4ccccc4C(=O)CC(C)C)sc3C2)nc(OC)n1` [Compound I-65], the MBI [1] was “(−) (When 3 μmol/L or less, the compound is shown as (−))” and the inhibition at 10 µM [2] was no less than 95%.

For `COc1cc(N2CCc3nc(NC(=O)Nc4cc(F)ccc4C(=O)NC(C)C)sc3C2)nc(OC)n1` [Compound I-74], the “hLMS_ox(at 0.5 μM) %” value [3] was 83.3% and the MBI [1] was “(−) (When 3 μmol/L or less, the compound is shown as (−))”.

With `COc1cc(N2CCc3nc(NC(=O)Nc4cccc(F)c4C(=O)NC(C)C)sc3C2)nc(OC)n1` [Compound I-75] the MBI [1] was “(−) (When 3 μmol/L or less, the compound is shown as (−))”.

With `COc1cncc(C2(F)CCc3nc(NC(=O)Nc4ccccc4C(=O)NC(C)C)sc3C2)c1` (stereo not drawn) [Compound I-79] the MBI [1] was “(−) (When 3 μmol/L or less, the compound is shown as (−))”.

For `CC(C)NC(=O)c1ccccc1NC(=O)Nc1nc2c(s1)CN(c1ccnc(Cl)n1)CC2` [Compound I-98], the MBI [1] was “(−) (When 3 μmol/L or less, the compound is shown as (−))” and the inhibition at 10 µM [2] was no less than 95%.

In the case of `Cc1cc(N2CCc3nc(NC(=O)Nc4ccccc4C(=O)NC(C)C)sc3C2)nc(Cl)n1` [Compound I-163], the “hLMS_ox(at 0.5 μM) %” value [3] is reported as 90.5%, the MBI [1] is reported as “(−) (When 3 μmol/L or less, the compound is shown as (−))” and the inhibition at 10 µM [2] is reported as 83%.

For `Cc1cc(N2CCc3nc(NC(=O)Nc4ccccc4C(=O)N[C@@H](C)CO)sc3C2)nc(Cl)n1` [Compound I-168], the “hLMS_ox(at 0.5 μM) %” value [3] was 104%, the MBI [1] was “(−) (When 3 μmol/L or less, the compound is shown as (−))” and the inhibition at 10 µM [2] was 89%.

For `Cc1cc(N2CCc3nc(NC(=O)Nc4ccccc4C(=O)N[C@@H](C)CO)sc3C2)nc(C#N)n1` [Compound I-180], the “hLMS_ox(at 0.5 μM) %” value [3] was 92.6%, the MBI [1] was “(−) (When 3 μmol/L or less, the compound is shown as (−))” and the inhibition at 10 µM [2] was 89%.

With `Cc1cc(N2CCc3nc(NC(=O)Nc4ccccc4C(=O)N[C@H](C)CO)sc3C2)nc(C#N)n1` [Compound I-185] the “hLMS_ox(at 0.5 μM) %” value [3] was 87.6%, the MBI [1] was “(−) (When 3 μmol/L or less, the compound is shown as (−))” and the inhibition at 10 µM [2] was no less than 95%.

With `Cc1cc(N2CCc3nc(NC(=O)Nc4cn(C)nc4C(=O)NC(C)C)sc3C2)nc(C#N)n1` [Compound I-186] the MBI [1] was “(−) (When 3 μmol/L or less, the compound is shown as (−))” and the inhibition at 10 µM [2] was 91%.

With `CS(=O)(=O)c1cccc(N2CCc3nc(NC(=O)Nc4ccccc4C(=O)NCC#N)sc3C2)c1` [Compound I-200] the MBI [1] was “(−) (When 3 μmol/L or less, the compound is shown as (−))” and the inhibition at 10 µM [2] was no less than 95%.
